# Where a name gives a salt, the structure may show the parent alone.
# Molecular target: TYK2 JH2 pseudokinase (Homo sapiens, UniProt P29597)
# Assay: Inhibitory activity on TYK2 JH2 pseudokinase (TR-FRET)
# Format: binding
# Details: 60 min room temperature, read-out: Kinase half maximal inhibitory concentration IC50 TYK2 JH2
# Method: In this experiment, the inhibitory effect of compounds on TYK2 JH2 pseudokinase was tested using the method of time-resolved fluorescence resonance energy transfer (TR-FRET). In the experiment, TYK2 JH2 or JAK1 JH2 pseudokinase can simultaneously bind to fluorescently labeled Tracer and Tb antibody to form a “sandwich structure”. Tb antibody, functioning as a fluorescent donor, produces fluorescence at a wavelength of 495 nm under the excitation of light at a specific wavelength. Tracer, functioning as a fluorescent acceptor, can receive fluorescence at a wavelength of 495 nm and thus produce fluorescence at a wavelength of 520 nm, i.e., a time-resolved fluorescence resonance energy transfer (TR-FRET) signal, only when it is within the “sandwich structure”, i.e., when it is sufficiently close to Tb antibody. When the compound is added to compete with Tracer for binding to the pseudokinase, the binding of Tracer decreases, leading to a weakened TR-FRET signal. The inhibitory activity of the compound binding to the pseudokinase can be reflected by the ratio of signal values at 520 nm/495 nm.
# The working solution consists of the following components: HEPES (pH 7.5) at a final concentration of 20 mM; MgCl2 at a final concentration of 10 mM; Brij-35 at a final concentration of 0.015%; DTT at a final concentration of 2 mM; and BSA at a final concentration of 50 μg/mL.
# • a) The compound was dissolved in DMSO to achieve a storage concentration of 10 mM. • b) Various concentrations of the compound, 200 times the final concentration, were prepared in a compound dilution plate and transferred to an Echo plate. • c) The Echo instrument was used to transfer 150 nL of the compound from the Echo plate to a 384-well experimental plate. • d) 5 μL of TYK2 JH2 kinase, at three times the final concentration, was added to the 384-well experimental plate. • e) 5 μL of Tb, at three times the final concentration, was added to the 384-well experimental plate. • f) 5 μL of Tracer, at three times the final concentration, was added to the 384-well experimental plate. • g) The plate was centrifuged for 30 seconds and then incubated at room temperature for 60 minutes. • h) The fluorescence signal values at 520 nm/495 nm were measured using an Envision plate reader (PerkinElmer).
# Data analysis was performed using the XL-Fit software to determine the IC50 of the compounds.
# Sequence of TYK2 JH2 pseudokinase (P29597 589-875 limits assumed): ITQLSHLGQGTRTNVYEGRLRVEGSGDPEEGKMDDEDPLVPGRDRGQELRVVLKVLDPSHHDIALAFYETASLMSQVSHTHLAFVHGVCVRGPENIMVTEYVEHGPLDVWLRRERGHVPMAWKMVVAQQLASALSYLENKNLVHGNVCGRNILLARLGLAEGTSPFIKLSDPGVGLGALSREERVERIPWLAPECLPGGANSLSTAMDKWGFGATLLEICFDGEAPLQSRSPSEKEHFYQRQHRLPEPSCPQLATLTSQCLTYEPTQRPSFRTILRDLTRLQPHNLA
row,Compound,IC50
1,[2H]C([2H])([2H])NC(=O)c1cnc(NC(=O)C2CC2)cc1Nc1cccc(-c2ncc([S+](C)[O-])cn2)c1OC (stereo not drawn) [Hydrochloride of WX-002],0.19 nM
2,CNC(=O)c1cnc(NC(=O)C2CC2)cc1Nc1cccc(-c2ncc(S(=O)(=O)N3CCC3)cn2)c1OC [Hydrochloride of WX-018],0.13 nM
3,[2H]C([2H])([2H])NC(=O)c1cnc(NC(=O)C2CC2)cc1Nc1cccc(-c2ccc(S(C)(=O)=O)cn2)c1OC [WX-004],0.2 nM
4,[2H]C([2H])([2H])NC(=O)c1cnc(NC(=O)C2CC2)cc1Nc1cccc(-c2ncc(S(C)(=O)=O)cn2)c1OC [Hydrochloride of WX-001],0.27 nM
5,[2H]C([2H])([2H])NC(=O)c1cnc(NC(=O)C2CC2)cc1Nc1cccc(-c2ncc(S(C)(=N)=O)cn2)c1OC (stereo not drawn) [WX-003],0.34 nM

# Molecular target: Ba/F3-FL-TYK2-E957D cells (Homo sapiens, UniProt P29597, E957D, cells depend on it)
# Sequence (P29597 whole entry E957D): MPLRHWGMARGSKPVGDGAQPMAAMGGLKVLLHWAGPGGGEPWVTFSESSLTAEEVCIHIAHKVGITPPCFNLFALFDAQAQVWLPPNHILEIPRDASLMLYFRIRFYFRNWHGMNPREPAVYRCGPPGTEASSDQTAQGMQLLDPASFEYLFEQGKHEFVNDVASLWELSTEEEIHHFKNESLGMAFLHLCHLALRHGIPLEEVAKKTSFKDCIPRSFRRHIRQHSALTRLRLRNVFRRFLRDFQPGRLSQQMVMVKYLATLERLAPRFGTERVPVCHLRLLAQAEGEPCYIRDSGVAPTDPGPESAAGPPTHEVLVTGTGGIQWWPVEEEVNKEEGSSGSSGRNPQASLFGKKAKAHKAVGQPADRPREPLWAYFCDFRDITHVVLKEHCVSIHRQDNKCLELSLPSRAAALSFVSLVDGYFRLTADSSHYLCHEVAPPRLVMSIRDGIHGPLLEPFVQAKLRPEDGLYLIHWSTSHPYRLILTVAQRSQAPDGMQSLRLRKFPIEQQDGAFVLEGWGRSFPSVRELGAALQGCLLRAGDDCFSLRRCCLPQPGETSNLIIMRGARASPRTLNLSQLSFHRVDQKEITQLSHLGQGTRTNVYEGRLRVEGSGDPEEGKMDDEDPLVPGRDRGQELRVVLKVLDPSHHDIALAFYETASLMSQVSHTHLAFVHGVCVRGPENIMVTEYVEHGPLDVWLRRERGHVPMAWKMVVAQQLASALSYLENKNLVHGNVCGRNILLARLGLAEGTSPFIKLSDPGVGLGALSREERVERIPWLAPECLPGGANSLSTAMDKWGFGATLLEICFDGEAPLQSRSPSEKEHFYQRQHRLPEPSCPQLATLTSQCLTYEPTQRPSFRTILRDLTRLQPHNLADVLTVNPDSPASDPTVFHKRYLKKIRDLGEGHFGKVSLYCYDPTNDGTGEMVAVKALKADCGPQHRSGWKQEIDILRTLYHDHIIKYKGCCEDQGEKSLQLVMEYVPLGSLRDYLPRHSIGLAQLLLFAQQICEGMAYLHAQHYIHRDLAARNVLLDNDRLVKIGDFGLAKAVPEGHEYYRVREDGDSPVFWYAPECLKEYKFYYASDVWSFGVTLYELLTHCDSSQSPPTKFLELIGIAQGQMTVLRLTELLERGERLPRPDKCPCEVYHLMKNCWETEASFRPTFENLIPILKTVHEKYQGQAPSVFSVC
# Assay: Proliferation of Ba/F3-FL-TYK2-E957D cells (CellTiter-Glo)
# Format: cell-based, mouse
# Details: 72 hours, read-out: Half maximal inhibitory concentration IC50 for cells Ba/F3-FL-TYK2-E957D
# Description: Adenosine triphosphate (ATP) serves as a universal energy carrier in various life processes, representing the smallest unit of energy storage and transfer. The CellTiter-Glo™ Luminescent Cell Viability Assay Kit utilizes luciferase as a detection agent. During the luminescent process, luciferase requires the participation of ATP. By adding CellTiter-Glo™ reagent to the cell culture medium and measuring the luminescence, the light signal was directly proportional to the amount of ATP in the system, and ATP was positively correlated with the number of viable cells. Therefore, cell proliferation can be detected by measuring ATP content using the CellTiter-Glo kit. In this test, the cell lines used were Ba/F3-FL-TYK2-E957D and Ba/F3-TEL-TYK2. Ba/F3-FL-TYK2-E957D cells can stably express the exogenously introduced human TYK2-E957D gene, and the TYK2-E957D gene sequence contains both JH1 and JH2 domains. On the other hand, Ba/F3-TEL-TYK2 cells can stably express the exogenously introduced human TEL-TYK2 gene, and the TEL-TYK2 gene sequence contains only the JH1 domain of TYK2.
# The cell lines were cultured in an incubator at 37° C. with 5% CO2. Regular passaging was performed, and cells in the logarithmic growth phase were selected for plating.
# • a) The test compounds were prepared into a 10 mM solution with DMSO, and then diluted to 0.3 or 1 mM with DMSO. • b) Preparation of 1000× compound storage plate (tube): The compounds were 3-fold serially diluted from the highest concentration to the lowest concentration, creating 9 different concentrations. • c) Preparation of 20× compound working solution: 49 μL of cell culture medium was added to a flat-bottomed 96-well transparent drug plate. From the 1000× compound storage plate, 1 μL of the compound was pipetted into the cell culture medium in the 96-well transparent drug plate. In the solvent control, 1 μL of DMSO was added. After the compound or DMSO was added, the mixture was homogenized using a multi-channel pipette.
# • a) Cells were stained with trypan blue and viable cells were counted to ensure a cell viability of 90% or more. • b) 95 μL of cell suspension (2000 cells/well) was added to each well of the compound assay cell plate, and cell-free culture medium containing 0.1% DMSO was added to the Min control wells. • c) Administration in the compound assay cell plate: 5 μL of 20× compound working solution was added to the cell culture plate. 5 μL of DMSO-cell culture medium mixture was added to the Max control wells. The final concentration of DMSO was 0.1%. • d) The culture plate was then incubated in an incubator at 37° C. with 5% CO2 for 72 hours.
# The following steps were conducted in accordance with the instructions of the Promega CellTiter-Glo Luminescent Cell Viability Assay Kit (Promega-G7573). • a) CellTiter-Glo buffer was thawed and brought to room temperature. • b) CellTiter-Glo substrate was also brought to room temperature. • c) CellTiter-Glo buffer was added to a bottle of CellTiter-Glo substrate to dissolve the substrate, thereby preparing CellTiter-Glo working solution. • d) The mixture was slowly vortexed and shaken to be fully dissolved. • e) The cell culture plate was removed and allowed to equilibrate to room temperature for 10 minutes. • f) 50 μL (equal to half the volume of cell culture medium in each well) of CellTiter-Glo working solution was added to each well. • g) The culture plate was shaken on an orbital shaker for 2 minutes to induce cell lysis. • h) The plate was then left at room temperature for 10 minutes to stabilize the luminescent signal. • i) The luminescent signal was detected using a SpectraMax Paradigm plate reader.
# Data analysis was conducted using GraphPad Prism 5.0 software. Nonlinear S-curve regression was employed to fit the data and generate dose-response curves. From these curves, the IC50 values were calculated.
row,Compound,GI50
1,[2H]C([2H])([2H])NC(=O)c1cnc(NC(=O)C2CC2)cc1Nc1cccc(-c2ncc([S+](C)[O-])cn2)c1OC (stereo not drawn) [Hydrochloride of WX-002],19.2 nM
2,CNC(=O)c1cnc(NC(=O)C2CC2)cc1Nc1cccc(-c2ncc(S(=O)(=O)N3CCC3)cn2)c1OC [Hydrochloride of WX-018],4.2 nM
3,[2H]C([2H])([2H])NC(=O)c1cnc(NC(=O)C2CC2)cc1Nc1cccc(-c2ncc(S(=N)(=O)C(C)C)cn2)c1OC (stereo not drawn) [Trifluoroacetate of WX-009],12.1 nM
4,CNC(=O)c1cnc(NC(=O)C2CC2)cc1Nc1cccc(-c2ccc(S(=O)(=O)C(C)C)nn2)c1OC [WX-038],3 nM
5,[2H]C([2H])([2H])NC(=O)c1cnc(NC(=O)C2CC2)cc1Nc1cccc(-c2ccc(S(C)(=O)=O)cn2)c1OC [WX-004],5.5 nM
6,CNC(=O)c1nnc(NC(=O)C2CC2)cc1Nc1cccc(-c2ncc(S3(=O)=NCCCC3)cn2)c1OC (stereo not drawn) [Hydrochloride of WX-029],3.8 nM
7,"CNC(=O)c1nnc(NC(=O)C2CC2)cc1Nc1cccc(-c2ccc(S(=N)(=O)C(C)C)nn2)c1OC (single isomer, unassigned) [WX-036A]",8.3 nM
8,[2H]C([2H])([2H])NC(=O)c1cnc(NC(=O)C2CC2)cc1Nc1cccc(-c2ncc(S(=O)(=O)N(C)C)cn2)c1OC [WX-005],2.2 nM
9,CN=S(=O)(c1ccc(-c2cccc(Nc3cc(NC(=O)C4CC4)nnc3C(=O)NC)c2OC)nc1)C(C)C (stereo not drawn) [Trifluoroacetate of WX-014],10.9 nM
10,CNC(=O)c1cnc(NC(=O)C2CC2)cc1Nc1cccc(-c2ccc(S(=O)(=O)C(C)C)nc2)c1OC [WX-039],4.7 nM
11,COc1c(Nc2cc(NC(=O)C3CC3)nnc2C(N)=O)cccc1-c1ncc(S(=N)(=O)C(C)C)cn1 (stereo not drawn) [Hydrochloride of WX-031],2.6 nM
12,[2H]C([2H])([2H])NC(=O)c1cnc(NC(=O)C2CC2)cc1Nc1cccc(-c2ncc(S(C)(=O)=O)cn2)c1OC [Hydrochloride of WX-001],13.7 nM
13,COc1c(Nc2cc(NC(=O)C3CC3)nnc2C(N)=O)cccc1-c1ccc(S(=N)(=O)C(C)C)cn1 (stereo not drawn) [Hydrochloride of WX-032],2.9 nM
14,CNC(=O)c1cnc(NC(=O)C2CC2)cc1Nc1cc(F)cc(-c2ccc(S(C)(=O)=O)cc2)c1OC [Trifluoroacetate of WX-026],18.8 nM
15,CCN=S(=O)(c1ccc(-c2cccc(Nc3cc(NC(=O)C4CC4)nnc3C(=O)NC)c2OC)nc1)C(C)C (stereo not drawn) [Hydrochloride of WX-016],11.7 nM
16,CNC(=O)c1cnc(NC(=O)C2CC2)cc1Nc1cc(F)cc(-c2ncc(S(=O)(=O)C(C)C)cn2)c1OC [WX-030],2 nM
17,[2H]C([2H])([2H])NC(=O)c1nnc(NC(=O)C2CC2)cc1Nc1cccc(-c2ccc(P(C)(C)=O)cc2)c1OC [Hydrochloride of WX-008],16 nM
18,CNC(=O)c1cnc(NC(=O)C2CC2)cc1Nc1cccc(-c2ncc(S(=O)(=O)N(C)C)cn2)c1OC [Hydrochloride of WX-017],4 nM
19,CCN=S(=O)(c1cnc(-c2cccc(Nc3cc(NC(=O)C4CC4)nnc3C(=O)NC)c2OC)nc1)C(C)C (stereo not drawn) [Hydrochloride of WX-015],13 nM
20,"CNC(=O)c1nnc(NC(=O)C2CC2)cc1Nc1cccc(-c2ccc(S(=N)(=O)C(C)C)nc2)c1OC (single isomer, unassigned) [WX-037B]",17 nM
21,CN=S(=O)(c1cnc(-c2cccc(Nc3cc(NC(=O)C4CC4)nnc3C(=O)NC)c2OC)nc1)C(C)C (stereo not drawn) [WX-013],12.1 nM
22,CNC(=O)c1nnc(NC(=O)C2CC2)cc1Nc1cccc(-c2ccc(P(=O)(C(C)C)C(C)C)cc2)c1OC [WX-023],13.8 nM

# Source: patent US20240335462A1, “SULFUR/PHOSPHORUS-CONTAINING ARYL COMPOUND AND APPLICATION THEREOF” (MEDSHINE DISCOVERY INC., priority 2021, published 2024)
